From US20230183234A1, “IAP ANTAGONIST COMPOUNDS AND INTERMEDIATES AND METHODS FOR SYNTHESIZING THE SAME” (Otsuka Pharmaceutical Co., Ltd., priority 2020, published 2023)

Experiment: Storage stability: level of aldehyde impurity of formula (XXV), HPLC peak at RRT 1.3
Assay type: physicochemical
Conditions: stored at 2-8° C.
Experimental: Based on experimental data, there is a correlation between the palladium content in the final end-product and drug substance of formula (XXIII) and the oxidative degradation of an aldehyde impurity. […] The degradation is manifested as an aldehyde impurity peak of formula (XXV) appearing at a relative retention time (RRT) of 1.3.
This impurity peak is found to be no more than 0.2% a/a when stored at 2-8° C., but higher levels are observed at elevated temperatures. The experimental results are depicted in FIGS. 6-7 and Tables 1, 4 and 5 for drug substance lots and corresponding formulations outlined in Tables 1-3.
The stability data and effect of palladium content on aldehyde impurity represented by the area percent of RRT 1.3 at a storage condition of 25° C. and 60% RH is provided in Table 4 and FIG. 6.
The effect of temperature on stability and the level of aldehyde impurity represented by the area percent of RRT 1.3 is provided in Table 5 and FIG. 7.

C[C@@H]1CN(CC(=O)N2CC(C)(C)c3nc(CO)c(Cc4ccc(F)cc4)cc32)[C@@H](CN2CCOC[C@H]2C)CN1.C[C@H](O)C(=O)O [formula (XXIII)]
impurity peak level at RRT 1.3 (aldehyde impurity of formula (XXV)): no more than 0.2 % a/a
